Measured values as given in patent US20180168208A1 (priority 2014, published 2018).
“And” between values parts separate entries of the source, which are not always exact repeats. Equal values may be shown once. Where a name gives a salt, the structure may show the parent alone. Read-outs that look alike come from different tables or passages of the source.

Columns and labels:
[1] = biological target: T1, T1R1/T1R3 receptor (Felis catus, UniProt E3UMS2); experiment: Example 6: activation of T1R1/T1R3 by transmembrane compounds, conducted as in Example 5; type: cell-based
Description: HEK293 cells that stably express T1R3 and inducibly express T1R1 were exposed to transmembrane compounds alone or in combination with one or more amino acids and/or one or more nucleotides to activate the umami receptor. Activation of the T1R1/T1R3 receptor was detected by a change in intracellular calcium levels using a calcium sensitive fluorescent dye. Cells that express T1R3 but not T1R1 were used as a control. A FLIPR® Tetra or a FlexStation® 3 was used for data capture.
In each experiment, serial dilutions of up to 10 mM of the transmembrane compound were added to the T1R1/T1R3-expressing cells.

[2] = biological target: T1, T1R1/T1R3 receptor; experiment: cell-based; conditions: for Max resp % of Ala, +IMP (0.2 mM): relative to alanine; for Thres (mM), +IMP (0.2 mM): threshold concentration in the presence of 0.2 mM IMP
Summary of the method: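 HEK293 cells stably expressing T1R3 with inducible T1R1 were given transmembrane compounds in serial dilutions up to 10 mM, alone or with amino acids and/or nucleotides. Receptor activation was read as an intracellular calcium change with a calcium-sensitive fluorescent dye; T1R3-only cells served as control.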

[3] = biological target: T2, cat T1R1/T1R3 receptor (Felis catus, UniProt A0ABI7Z2I4); experiment: cell-based
T2 sequence (A0ABI7Z2I4 171-420): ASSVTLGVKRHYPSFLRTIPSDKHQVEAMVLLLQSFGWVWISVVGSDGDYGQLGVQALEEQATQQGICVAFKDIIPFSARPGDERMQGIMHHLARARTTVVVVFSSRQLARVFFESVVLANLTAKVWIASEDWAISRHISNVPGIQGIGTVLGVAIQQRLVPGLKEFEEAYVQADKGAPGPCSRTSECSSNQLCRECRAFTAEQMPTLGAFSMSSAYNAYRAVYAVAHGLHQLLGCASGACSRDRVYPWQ
T2 sequence (Q49KI5 25-865 E206Q/N523D/F654L partner): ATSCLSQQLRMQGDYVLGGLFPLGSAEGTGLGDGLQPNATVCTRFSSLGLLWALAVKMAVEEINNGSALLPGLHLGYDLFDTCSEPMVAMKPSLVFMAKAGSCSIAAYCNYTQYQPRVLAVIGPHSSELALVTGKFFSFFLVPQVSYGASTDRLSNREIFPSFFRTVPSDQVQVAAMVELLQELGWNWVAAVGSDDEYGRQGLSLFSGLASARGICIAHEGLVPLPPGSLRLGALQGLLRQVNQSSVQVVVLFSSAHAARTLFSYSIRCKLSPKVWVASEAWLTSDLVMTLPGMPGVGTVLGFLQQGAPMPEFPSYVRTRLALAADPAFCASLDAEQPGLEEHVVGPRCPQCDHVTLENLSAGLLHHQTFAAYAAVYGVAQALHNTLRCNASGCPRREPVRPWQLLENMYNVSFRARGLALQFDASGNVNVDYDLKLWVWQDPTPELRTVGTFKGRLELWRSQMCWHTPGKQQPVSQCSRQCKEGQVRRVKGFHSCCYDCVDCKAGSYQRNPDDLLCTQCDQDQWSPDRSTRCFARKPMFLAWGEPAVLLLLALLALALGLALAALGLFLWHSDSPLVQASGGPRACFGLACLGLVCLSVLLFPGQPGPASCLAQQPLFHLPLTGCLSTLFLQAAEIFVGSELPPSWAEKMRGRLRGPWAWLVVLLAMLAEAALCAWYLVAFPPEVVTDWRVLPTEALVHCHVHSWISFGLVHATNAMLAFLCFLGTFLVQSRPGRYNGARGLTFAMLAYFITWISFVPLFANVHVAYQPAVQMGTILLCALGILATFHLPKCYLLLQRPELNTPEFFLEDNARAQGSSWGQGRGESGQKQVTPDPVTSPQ
Protocol: […] Activation of the T1R1/T1R3 receptor was detected by a change in intracellular calcium levels using a calcium sensitive fluorescent dye. Cells that express T1R3 but not T1R1 were used as a control. A FLIPR® Tetra or a FlexStation® 3 was used for data capture.
In each experiment, serial dilutions of up to 0.1 mM, 1 mM or 10 mM of the nucleotide derivative were added to the T1R1/T1R3-expressing cells.

[4] = biological target: T2, cat T1R1/T1R3 receptor; experiment: cell-based; remark: listed apart in the source
Summary of the method: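 HEK293 cells stably expressing T1R3 with inducible T1R1, treated with nucleotide derivatives alone or combined with amino acids and/or nucleotides. Activation read as intracellular calcium change by calcium-sensitive fluorescent dye and/or luminescent reporter. Cells expressing T1R3 without T1R1 served as control.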

[5] = biological target: T1, T1R1/T1R3 receptor; experiment: cell-based; type: cell-based
Summary of the method: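 HEK293 cells stably expressing T1R3 with inducible T1R1 received serial dilutions of compound (up to 10 mM), alone or with amino acids and/or nucleotides. Activation was read as an intracellular calcium change with a calcium-sensitive fluorescent dye. Cells expressing T1R3 without T1R1 served as control.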

[6] = biological target: T1, T1R1/T1R3 receptor; experiment: Example 8: agonist screening of transmembrane compounds on T1R1/T1R3 in HEK293 cells; type: cell-based, cat; conditions: transmembrane compound alone
Protocol: (§1) HEK293 cells that stably express T1R3 and inducibly express T1R1 were exposed to a transmembrane compound. Activation of the T1R1/T1R3 receptor was detected by a change in intracellular calcium levels using a calcium sensitive fluorescent dye and/or a luminescent reporter system. […] A FLIPR® Tetra or a FlexStation® 3 was used for data capture.
Each transmembrane compound was tested at concentrations of 0.01 mM, 0.1 mM, and 1 mM. […] To generate the dose response curves, the transmembrane compound was tested at concentrations of between 0.0001 mM and 1.0 mM in the presence of GMP and Ala.
Target sequence in this assay (E3UMS2 entry or part of it, one chain of several): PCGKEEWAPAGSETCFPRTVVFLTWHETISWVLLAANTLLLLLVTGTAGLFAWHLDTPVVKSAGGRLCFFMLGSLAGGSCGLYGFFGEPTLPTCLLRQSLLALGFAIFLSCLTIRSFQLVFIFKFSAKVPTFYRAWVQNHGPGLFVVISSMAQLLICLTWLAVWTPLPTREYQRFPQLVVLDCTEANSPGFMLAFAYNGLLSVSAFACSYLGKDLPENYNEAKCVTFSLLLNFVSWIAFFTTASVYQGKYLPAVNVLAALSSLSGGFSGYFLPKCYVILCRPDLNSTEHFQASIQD

[7] = biological target: T1, T1R1/T1R3 receptor; experiment: Example 8: PAM screening of transmembrane compounds with GMP and Ala on T1R1/T1R3 in HEK293 cells; type: cell-based, cat; conditions: in the presence of GMP and Alanine
Description: as §1, with “to” for “to a”, “compound alone or in combination with Ala and GMP to activate the umami receptor.” for “compound.”
Target sequence in this assay (E3UMS2 entry or part of it, one chain of several): as above
Dose response curves were generated for each transmembrane compound at concentrations of 0 (buffer only), 0.01, 0.1 and 1 mM, wherein each of the three concentrations of transmembrane compound was tested in combination with 0.03 mM GMP+100 mM Ala (T1); 0.6 mM GMP+10 mM Ala (T2); 0.1 mM GMP+60 mM Ala (T3) and 0.3 mM GMP+60 mM Ala (T4). The T4 mixture was also tested in a 2-fold dilution series (the T4(×) Concentration). In these experiments, the first test concentration was 2× (2 times) the T4 concentration. The subsequent test concentrations were 2-fold dilutions from that (1×, 0.5×etc.). This dilution series was tested with or without the addition of the test compound at a constant 0.3 mM concentration.
Activation of the umami receptor was also determined in the presence of 1 mM GMP+100 mM Ala to generate a “maximum” umami receptor activation level.

[8] = T1R1/T1R3 EC50 +0.2 mM IMP, +0.2 mM IMP
[9] = alone in buffer, read-out: T1R1/T1R3 EC50 alone in buffer
[10] = EC50 (mM), +Alanine (20 mM) + IMP (0.2 mM), in the presence of 20 mM alanine and 0.2 mM IMP
[11] = EC50 (mM), +IMP (0.2 mM), in the presence of 0.2 mM IMP
[12] = T1R1/T1R3 EC50 +20 mM L-alanine + 0.2 mM IMP, +20 mM L-alanine + 0.2 mM IMP
[13] = compound alone in buffer, read-out: EC50 (mM), +buffer (alone)

## Nc1ccccc1C(=O)NCCc1ccccc1 [2-amino-N-phenethylbenzamide]
[1]
  EC50: 480 ± 10 µM
[1]; [8]
  EC50: 140 ± 30 µM
[1]; [9]
  EC50: 420 ± 10 µM
[2]
  Max resp % of IMP, +Alanine (20 mM): 93.4%
  Thres (mM), +Alanine (20 mM): 0.3 mM
  Thres (mM), +IMP (0.2 mM): 0.01 mM
[2]; [10]
  EC50: 0.09 mM
[2]; EC50 (mM), +Alanine (20 mM), in the presence of 20 mM alanine
  EC50: 0.48 mM
[2]; [11]
  EC50: 0.14 mM
[2]; [8]
  EC50: 0.14 ± 0.02 mM
[2]; [12]
  EC50: 0.09 ± 0.01 mM
[2]; T1R1/T1R3 EC50 +20 mM L-alanine, +20 mM L-alanine
  EC50: 0.48 ± 0.01 mM
[2]; [9]
  EC50: 0.42 ± 0.01 mM
[2]; [13]
  EC50: 0.42 mM
[2]; in the presence of 0.2 mM IMP
  Max resp % of Ala, +IMP (0.2 mM): 194.5%

## Nc1ncnc2c1ncn2[C@H]1C[C@H](OP(=O)(O)O)[C@@H](COP(=O)(O)O)O1 [2′-deoxyadenosine-3′, 5′-O-bisphosphate]
[3]; test compound alone (in buffer), read-out: EC50- alone
  EC50: 20 µM
[4]
  Max resp. (ΔF/F): 0.8 ΔF/F
  Max. resp. % of IMP: 76.4 % of IMP
  Threshold: 0.005 mM

## O=c1[nH]cnc2c1ncn2C1OC(COP(=O)(O)OP(=O)(O)O)C(O)C1O (stereo not shown) [Inosine 5′-disphosphate (IDP) sodium salt]
[3]
  EC50: 650 ± 70 µM

## O=C(NCCc1c[nH]c2ccccc12)c1cccnc1 [N-(2-(1H-indol-3-yl)ethyl)nicotinamide, N-(2-(1H-Indol-3-yl)ethyl)nicotinamide]
[1]; [8]
  EC50: 50 ± 10 µM
[1]; [9]
  EC50: 150 ± 30 µM
[2]
  Max resp % of IMP, +Alanine (20 mM): 166.4%
  Thres (mM), +Alanine (20 mM): 0.03 mM
  Thres (mM), +IMP (0.2 mM): 0.003 mM
[2]; [10]
  EC50: 0.04 mM
[2]; [11]
  EC50: 0.05 mM
[2]; [8]
  EC50: 0.05 ± 0.01 mM
[2]; [12]
  EC50: 0.04 ± 0.1 mM
[2]; [9]
  EC50: 0.15 ± 0.03 mM
[2]; [13]
  EC50: 0.15 mM
[2]; in the presence of 0.2 mM IMP
  Max resp % of Ala, +IMP (0.2 mM): 170.1%

## CCCC(CCC)NC(=O)c1ccc2c(c1)OCO2 [N-(heptan-4-yl)benzo[d][1,3]dioxole-5-carboxamide]
[5]; + Alanine, Table 17
  Max resp ΔF/F +Alanine: 1.7725 and 1.2
[5]; + IMP (0.2 mM), Table 17
  Max resp ΔF/F +IMP: 1.4725
[5]; +Alanine (20 mM), Table 18
  Max resp ΔF/F +Alanine: 1.2 and 1.7725
[5]; +Alanine (20 mM), Table 18, read-out: EC50 +Alanine
  EC50: 420 µM and 1100 µM
[5]; +IMP (0.2 mM), Table 18
  Max resp ΔF/F +IMP: 1.393 and 1.473
[5]; EC50 + IMP, + IMP (0.2 mM), Table 17
  EC50: 90 µM and 100 µM
[5]; EC50 +Alanine + IMP, +Alanine (20 mM) + IMP (0.2 mM), Table 18
  EC50: 30 µM and 100 µM
[5]; EC50 +IMP, +IMP (0.2 mM), Table 18
  EC50: 100 µM and 90 µM
[5]; EC50 - with Ala (20 mM) and IMP (0.2 mM), with 20 mM alanine and 0.2 mM IMP
  EC50: 30 ± 30 µM
[5]; EC50 - with Ala (20 mM), with 20 mM alanine
  EC50: 420 ± 60 µM
[5]; EC50 - with IMP (0.2 mM), with 0.2 mM IMP
  EC50: 90 ± 40 µM
[5]; alone in buffer, read-out: EC50 - alone
  EC50: 260 ± 90 µM
[5]; compound alone in buffer, Table 17, read-out: EC50 + buffer (alone)
  EC50: 700 µM and 260 µM
[5]; compound alone in buffer, Table 18, read-out: EC50 +buffer (alone)
  EC50: 260 µM and 700 µM
[5]; read-out: EC50 + Alanine
  EC50: 1100 µM and 420 µM
[6]
  agonist profile assessment (agonist activity): agonist
[7]
  PAM profile assessment (PAM activity): PAM activity
